According to ChEMBL document CHEMBL1157003, “'Novel alkyl side chain sulfone 1alpha,25-dihydroxyvitamin D3 analogs: a comparison of in vitro antiproliferative activities and in vivo calcemic activities'” (2009):
Calls of active or inactive are those of the source. The rule behind the calls is not given here.

Experiments:
Rattus norvegicus = assay: Inhibition of calciuria in rat at 10 ug/kg, po administered qd for 1 week; assay type: functional, organism-based
[1] = Antiproliferative activity against mouse keratinocytes at 10 nM relative to calcitrol; assay type: functional, Keratinocyte
Keratinocyte = assay: Antiproliferative activity against mouse keratinocytes; assay type: functional, cell-based

| SMILES | inhibition (Rattus norvegicus) | Ratio [1] | Activity (Keratinocyte) |
| --- | --- | --- | --- |
| C=C1/C(=C\C=C2/CCC[C@]3(C)C([C@H](C)CCCS(=O)(=O)C(F)(F)F)=CC[C@@H]23)C[C@@H](O)C[C@@H]1O | Active | 2 | – |
| C=C1/C(=C\C=C2/CCC[C@]3(C)C([C@H](C)CCCS(=O)(=O)C(C)C)=CC[C@@H]23)C[C@@H](O)C[C@@H]1O | Active | – | Active |
| C=C1/C(=C\C=C2/CCC[C@]3(C)[C@@H]([C@H](C)CCCC(C)(C)O)CC[C@@H]23)C[C@@H](O)C[C@@H]1O | Active | – | – |
| C=C1/C(=C\C=C2/CCC[C@]3(C)C([C@H](C)CCCS(C)(=O)=O)=CC[C@@H]23)C[C@@H](O)C[C@@H]1O | Active | – | Active |
